Test results as given in PubChem BioAssay AID328 (DTP/NCI, 2004).
Values joined by “and” are separate entries in the source; they are usually repeats but may differ in a detail not shown here. Equal entries are not always repeated. Inconclusive results and toxic doses are left out.

Test system: BDF1 mice, P388 leukemia ip, median survival T/C
Experiment: NCI In Vivo Anticancer Drug Screen. Data for tumor model P388 Leukemia (intraperitoneal) in B6D2F1 (BDF1) mice
Conditions: endpoint: median survival time, higher = longer survival
Outline: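 Antitumour effect was judged in vivo: survival in drug-treated mice, normalised to that of vehicle-dosed controls, gives the reported T/C.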

[1] = dose: 100.0 mg/kg/injection, schedule: Q04DX003 (ip), vehicle: saline with Tween-80
[2] = dose: 200.0 mg/kg/injection, schedule: Q04DX003 (ip), vehicle: saline with Tween-80
[3] = dose: 400.0 mg/kg/injection, schedule: Q04DX003 (ip), vehicle: saline with Tween-80
[4] = dose: 200.0 mg/kg/injection, schedule: Q01DX009 (ip), vehicle: saline with Tween-80
[5] = dose: 25.0 mg/kg/injection, schedule: Q01DX009 (ip), vehicle: saline with Tween-80
[6] = dose: 12.5 mg/kg/injection, schedule: Q04DX003 (ip), vehicle: saline
[7] = dose: 100.0 mg/kg/injection, schedule: Q01DX009 (ip), vehicle: Klucel (hydroxypropylcellulose) (HPC)
[8] = dose: 200.0 mg/kg/injection, schedule: Q01DX009 (ip), vehicle: Klucel (hydroxypropylcellulose) (HPC)
[9] = dose: 50.0 mg/kg/injection, schedule: Q01DX009 (ip), vehicle: saline with Tween-80
[10] = dose: 100.0 mg/kg/injection, schedule: Q01DX009 (ip), vehicle: saline with Tween-80
[11] = dose: 50.0 mg/kg/injection, schedule: Q01DX001 (ip), vehicle: saline with Tween-80
[12] = dose: 100.0 mg/kg/injection, schedule: Q01DX001 (ip), vehicle: saline with Tween-80
[13] = dose: 100.0 mg/kg/injection, schedule: Q01DX001 (ip), vehicle: saline sonified

`O=c1oc2ccccc2c2c1C(c1ccccc1)C=C(c1ccccc1)O2` (stereo unspecified) was tested. Which T/C (dose: 50.0 mg/kg/injection, schedule: Q04DX003 (ip), vehicle: saline with Tween-80) did it give?
Its T/C is 96 % of control.

What about the T/C [1] of the same molecule?
Its T/C is 91 % of control.

What about the T/C [2] of the same molecule?
The T/C was 91 % of control.

What about the T/C [3] of the same molecule?
The T/C was 95 % of control.

Which T/C [4] does the source give for `COC(=O)c1ccc(CSc2ccccc2NC(=S)Nc2cccc(C(F)(F)F)c2)o1` here?
Its T/C is 90 % of control.

`CSc1ccc(N=C=C(c2ccccc2)c2ccccc2)cc1` was tested. Which T/C (dose: 6.25 mg/kg/injection, schedule: Q01DX009 (ip), vehicle: saline with Tween-80) did it give?
The T/C was 95 % of control.

And the T/C (dose: 12.5 mg/kg/injection, schedule: Q01DX009 (ip), vehicle: saline with Tween-80)?
Its T/C is 90 % of control.

And the T/C [5]?
The T/C was 90 % of control.

What does the source list for `O=[N+]([O-])c1ccc(SCc2ccccc2)c2c1no[n+]2[O-]`?
T/C (dose: 15.0 mg/kg/injection, schedule: Q01DX009 (ip), vehicle: saline with Tween-80): 105 % of control; T/C (dose: 30.0 mg/kg/injection, schedule: Q01DX009 (ip), vehicle: saline with Tween-80): 96 % of control; T/C (dose: 60.0 mg/kg/injection, schedule: Q01DX009 (ip), vehicle: saline with Tween-80): 93 % of control

`Cc1ccc(C[N+](C)(C)C)c2ccccc12` was tested. Which T/C [6] did it give?
The T/C was 107 % of control.

And the T/C (dose: 25.0 mg/kg/injection, schedule: Q04DX003 (ip), vehicle: saline)?
Its T/C is 105 % of control.

And the T/C (dose: 50.0 mg/kg/injection, schedule: Q04DX003 (ip), vehicle: saline)?
The T/C was 96 % of control.

How did the T/C (dose: 50.0 mg/kg/injection, schedule: Q01DX009 (ip), vehicle: Klucel (hydroxypropylcellulose) (HPC)) turn out when `O=C(CO)Nc1ccc(Br)cc1` was run?
Its T/C is 94 % of control.

What about the T/C [7] of the same molecule?
Its T/C is 104 % of control.

What about the T/C [8] of the same molecule?
The T/C was 86 % of control.

For `COc1ccc(OC)c(/C=C/C(=O)NCC(O)CO)c1` (stereo unspecified), which T/C [9] is on record?
Its T/C is 95 % of control.

And the T/C [10]?
The T/C was 100 % of control.

With `C=CCCCCCCCCC(=O)N(C)OC` as the molecule, how does the T/C (dose: 25.0 mg/kg/injection, schedule: Q01DX001 (ip), vehicle: saline with Tween-80) read?
Its T/C is 95 % of control.

What about the T/C [11] of the same molecule?
Its T/C is 109 % of control.

And the T/C [12]?
The T/C was 118 % of control.

Which T/C [11] does the source give for `CN(C)C(=O)Nc1ccc(Cl)cc1` here?
The T/C was 95 % of control.

What about the T/C [12] of the same molecule?
The T/C was 100 % of control.

And the T/C (dose: 200.0 mg/kg/injection, schedule: Q01DX001 (ip), vehicle: saline with Tween-80)?
Its T/C is 104 % of control.

What does the source list for `C[C@]12C=CC(=O)C=C1CC[C@@H]1[C@@H]2[C@@H](O)C[C@@]2(C)[C@H]1CC[C@]2(O)C(=O)CO`?
T/C (dose: 12.5 mg/kg/injection, schedule: Q01DX010 (sc), vehicle: steriod suspending solution): 109 % of control and 120 % of control; T/C (dose: 25.0 mg/kg/injection, schedule: Q01DX010 (sc), vehicle: steriod suspending solution): 109 % of control and 110 % of control; T/C (dose: 50.0 mg/kg/injection, schedule: Q01DX010 (sc), vehicle: steriod suspending solution): 113 % of control and 120 % of control; T/C (dose: 100.0 mg/kg/injection, schedule: Q01DX010 (sc), vehicle: steriod suspending solution): 118 % of control and 120 % of control

How did the T/C (dose: 3.12 mg/kg/injection, schedule: Q01DX001 (ip), vehicle: Klucel (hydroxypropylcellulose) (HPC)) turn out when `CCN1CC1` was run?
The T/C was 113 % of control.

And the T/C (dose: 6.25 mg/kg/injection, schedule: Q01DX001 (ip), vehicle: Klucel (hydroxypropylcellulose) (HPC))?
Its T/C is 118 % of control.

What about the T/C (dose: 6.25 mg/kg/injection, schedule: Q01DX009 (ip), vehicle: Klucel (hydroxypropylcellulose) (HPC)) of the same molecule?
Its T/C is 90 % of control.

And the T/C (dose: 12.5 mg/kg/injection, schedule: Q01DX001 (ip), vehicle: Klucel (hydroxypropylcellulose) (HPC))?
Its T/C is 86 % of control.

And the T/C (dose: 12.5 mg/kg/injection, schedule: Q01DX009 (ip), vehicle: Klucel (hydroxypropylcellulose) (HPC))?
Its T/C is 86 % of control.

What does the source list for `COc1ccc(C=Nc2cccc3ccccc23)cc1`?
T/C [13]: 100 % of control; T/C (dose: 200.0 mg/kg/injection, schedule: Q01DX001 (ip), vehicle: saline sonified): 100 % of control; T/C (dose: 400.0 mg/kg/injection, schedule: Q01DX001 (ip), vehicle: saline sonified): 104 % of control

How did the T/C (dose: 100.0 mg/kg/injection, schedule: Q04DX003 (ip), vehicle: alcohol) turn out when `CC1(C(=O)O)CCC2(C)CCC3(C)C(=CC(=O)C4C5(C)CCC(OC6OC(C(=O)O)C(O)C(O)C6OC6OC(C(=O)O)C(O)C(O)C6O)C(C)(C)C5CCC43C)C2C1` (stereo unspecified) was run?
The T/C was 104 % of control.

What about the T/C (dose: 200.0 mg/kg/injection, schedule: Q04DX003 (ip), vehicle: alcohol) of the same molecule?
The T/C was 104 % of control.

And the T/C (dose: 400.0 mg/kg/injection, schedule: Q04DX003 (ip), vehicle: alcohol)?
Its T/C is 90 % of control.

With `OCC(O)C(O)C(O)C(O)C(O)CO` (stereo unspecified) as the molecule, how does the T/C (dose: 100.0 mg/kg/injection, schedule: Q01DX010 (ip), vehicle: carboxymethylcellulose (CMC)) read?
The T/C was 100 % of control.

What about the T/C (dose: 100.0 mg/kg/injection, schedule: Q01DX010 (ip), vehicle: saline) of the same molecule?
The T/C was 95 % of control.

And the T/C (dose: 400.0 mg/kg/injection, schedule: Q01DX010 (ip), vehicle: carboxymethylcellulose (CMC))?
Its T/C is 100 % of control.

And the T/C (dose: 400.0 mg/kg/injection, schedule: Q01DX010 (ip), vehicle: saline)?
The T/C was 100 % of control.

Which results are given for `O=C1NC(C2CCC3CN32)C(=O)NC1C1CCC2CN21` (stereo unspecified)?
T/C (dose: 0.05 mg/kg/injection, schedule: Q01DX009 (ip), vehicle: saline): 91 % of control and 118 % of control; T/C (dose: 0.1 mg/kg/injection, schedule: Q01DX009 (ip), vehicle: saline): 96 % of control; T/C (dose: 0.2 mg/kg/injection, schedule: Q01DX009 (ip), vehicle: saline): 107 % of control; T/C (dose: 0.8 mg/kg/injection, schedule: Q01DX009 (ip), vehicle: saline): 164 % of control and 173 % of control

`O=C1OC(=Nc2cccc([N+](=O)[O-])c2)c2ccccc21` was tested. Which T/C [9] did it give?
Its T/C is 150 % of control.

And the T/C [4]?
The T/C was 97 % of control.

What does the source list for `COC(=O)C1CC(O)CN1C(=O)c1c2nc3c(C(=O)N4CC(O)CC4C(=O)OC)ccc(C)c3oc-2c(C)c(=O)c1N` (stereo unspecified)?
T/C [1]: 96 % of control; T/C [2]: 100 % of control; T/C [3]: 114 % of control

With `Cc1cc(=O)[nH]o1` as the molecule, how does the T/C [9] read?
Its T/C is 108 % of control.

And the T/C [10]?
Its T/C is 103 % of control.

And the T/C [4]?
The T/C was 103 % of control.

What about the T/C (dose: 400.0 mg/kg/injection, schedule: Q01DX009 (ip), vehicle: saline with Tween-80) of the same molecule?
The T/C was 113 % of control.

`CS/C(N)=N/N` was tested. Which T/C (dose: 6.25 mg/kg/injection, schedule: Q04DX003 (ip), vehicle: saline) did it give?
The T/C was 95 % of control.

What about the T/C [6] of the same molecule?
Its T/C is 108 % of control.

How did the T/C [5] turn out when `C[n+]1c(/C=N/NC(N)=S)ccc2ccccc21` was run?
The T/C was 97 % of control.

And the T/C [9]?
The T/C was 106 % of control.

And the T/C [10]?
Its T/C is 113 % of control.

What does the source list for `CC(C)N1CCC(=O)NC1=O`?
T/C (dose: 25.0 mg/kg/injection, schedule: Q01DX001 (ip), vehicle: saline sonified): 104 % of control; T/C (dose: 50.0 mg/kg/injection, schedule: Q01DX001 (ip), vehicle: saline sonified): 104 % of control; T/C [13]: 100 % of control

With `Cc1ccc(C)c(NC(=O)c2ccccc2N)c1` as the molecule, how does the T/C [7] read?
Its T/C is 100 % of control.

What about the T/C (dose: 100.0 mg/kg/injection, schedule: Q04DX003 (ip), vehicle: Klucel (hydroxypropylcellulose) (HPC)) of the same molecule?
The T/C was 104 % of control.

What about the T/C [8] of the same molecule?
Its T/C is 100 % of control.

And the T/C (dose: 200.0 mg/kg/injection, schedule: Q04DX003 (ip), vehicle: Klucel (hydroxypropylcellulose) (HPC))?
Its T/C is 104 % of control.

And the T/C (dose: 400.0 mg/kg/injection, schedule: Q01DX009 (ip), vehicle: Klucel (hydroxypropylcellulose) (HPC))?
Its T/C is 90 % of control.

What about the T/C (dose: 400.0 mg/kg/injection, schedule: Q04DX003 (ip), vehicle: Klucel (hydroxypropylcellulose) (HPC)) of the same molecule?
The T/C was 104 % of control.
